The values that follow come from PubChem BioAssay AID2060886 (Molecular Pharmacology Branch, DTP, NCI, 2025).

One may read the viability, T/C as the ratio of treated to control. A word on the IC50: it is the concentration at which inhibition is half-maximal.

The test system of the assay is 653999-131-R-J2-PDC complex spheroids, growth inhibition. As to the kind of experiment: Anticancer human tumor 653999-131-R-J2-PDC patient-derived lung adenocarcinoma cell line growth inhibition [RAS]. Conditions: for viability, T/C: stronger effect = lower value. Put shortly:
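Agents were tested in combination matrices in half-log decrements from a top concentration at or near clinical Cmax (10 microM if undetermined). Targets were multi-cell spheroids of tumour lines plus HUVEC and MSC stromal cells.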

Each structure is given as a SMILES string.
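Also: spheroids exposed to the agents for seven days before the readout.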

`CCC(CC)c1cc(NC2CCC(N)C2)n2nccc2n1` (centres undefined): the viability, T/C is 107% [middle of 4 runs] (compound 0.1 µM), 120% [middle of 4 runs] (compound 0.316 µM), 14% [middle of 4 runs] (compound 3.16 µM) and 19.9% [middle of 4 runs] (compound 10 µM). The IC50 (curve of compound) is 2.01 µM [middle of 4 runs].

For `Nc1ccn(C2OC(CO)C(O)C2(F)F)c(=O)n1` (centres undefined) + CCn1c(-c2cccnc2C(C)OC)c2c3cc(ccc31)N1CCOC(CC(NC(=O)C(C(C)C)N(C)C(=O)C3(F)CCN(C(=O)C#CC(C)(C)N(C)C)CC3)C(=O)N3CCCC(N3)C(=O)OCC(C)(C)C2)C1, the IC50 reads like this: (curve of first compound, second compound 0.000949 µM) 70.6 nM; (curve of first compound, second compound 0.003 µM) 66.1 nM; (curve of first compound, second compound 0.00949 µM) 61.9 nM; (curve of first compound, second compound 0.03 µM) 64.4 nM; (curve of first compound, second compound 0.0949 µM) 42.5 nM; (curve of first compound, second compound 0.3 µM) 59.3 nM. Besides, the viability, T/C (second compound 0.000949 µM, first compound 0.00316 µM) is 93.8%; the viability, T/C (second compound 0.000949 µM, first compound 0.01 µM) is 74.9%; the viability, T/C (second compound 0.000949 µM, first compound 0.0316 µM) is 59.8%; the viability, T/C (second compound 0.000949 µM, first compound 0.1 µM) was 41.4%; the viability, T/C (second compound 0.000949 µM, first compound 0.316 µM) was 49.4%; the viability, T/C (second compound 0.000949 µM, first compound 1 µM) is 37.4%. Besides, the viability, T/C is, setting by setting: (second compound 0.003 µM, first compound 0.00316 µM) 110%; (second compound 0.003 µM, first compound 0.01 µM) 74.8%; (second compound 0.003 µM, first compound 0.0316 µM) 57.9%; (second compound 0.003 µM, first compound 0.1 µM) 44.7%; (second compound 0.003 µM, first compound 0.316 µM) 44%; (second compound 0.003 µM, first compound 1 µM) 36.1%. Further, the viability, T/C runs as follows: (second compound 0.00949 µM, first compound 0.00316 µM) 93.1%; (second compound 0.00949 µM, first compound 0.01 µM) 67.1%; (second compound 0.00949 µM, first compound 0.0316 µM) 59.7%; (second compound 0.00949 µM, first compound 0.1 µM) 45.5%; (second compound 0.00949 µM, first compound 0.316 µM) 36.9%; (second compound 0.00949 µM, first compound 1 µM) 38.2%. Further, the viability, T/C by setting is: (second compound 0.03 µM, first compound 0.00316 µM) 93.8%; (second compound 0.03 µM, first compound 0.01 µM) 66.9%; (second compound 0.03 µM, first compound 0.0316 µM) 57.7%; (second compound 0.03 µM, first compound 0.1 µM) 50.3%; (second compound 0.03 µM, first compound 0.316 µM) 36%; (second compound 0.03 µM, first compound 1 µM) 31.8%. In addition, the viability, T/C reads like this: (second compound 0.0949 µM, first compound 0.00316 µM) 94.5%; (second compound 0.0949 µM, first compound 0.01 µM) 64.9%; (second compound 0.0949 µM, first compound 0.0316 µM) 53.8%; (second compound 0.0949 µM, first compound 0.1 µM) 45.6%; (second compound 0.0949 µM, first compound 0.316 µM) 37.2%; (second compound 0.0949 µM, first compound 1 µM) 33.2%. Moreover, the viability, T/C reads like this: (second compound 0.3 µM, first compound 0.00316 µM) 91.5%; (second compound 0.3 µM, first compound 0.01 µM) 78.3%; (second compound 0.3 µM, first compound 0.0316 µM) 62.2%; (second compound 0.3 µM, first compound 0.1 µM) 40.1%; (second compound 0.3 µM, first compound 0.316 µM) 33.3%; (second compound 0.3 µM, first compound 1 µM) 33.5%.

With `C#Cc1c(F)ccc2cc(O)cc(-c3ncc4c(N5CC6CCC(C5)N6)nc(OCC56CCCN5CC(F)C6)nc4c3F)c12` (centres undefined), the viability, T/C by setting is: (compound 0.0316 µM) 99% [middle of 8 runs]; (compound 0.1 µM) 89.6% [middle of 8 runs]; (compound 0.316 µM) 71.2% [middle of 8 runs]; (compound 1 µM) 58.1% [middle of 8 runs]; (compound 3.16 µM) 43.8% [middle of 8 runs]; (compound 10 µM) 31.8% [middle of 8 runs]. Besides, the IC50 (compound alone, run of 09/09/2024) was 1.88 µM [middle of 8 runs].
